Values of other authors, collected in patent US20210330725A1, “GARCINIA MANGOSTANA EXTRACT FOR PROMOTING HAIR GROWTH” (PIERRE FABRE DERMO-COSMETIQUE, priority 2018, published 2021).

Test system: hair follicles
Conditions: mice

## C[C@@H]1CCN(C(=O)CC#N)C[C@@H]1N(C)c1ncnc2[nH]ccc12 [Tofacitinib, tofacitinib]
  effect on hair cycle of topical treatment in telogen phase: rapid re-entry at the beginning of anagen phase
